Measured values reported in patent publication US5556744A, “Methods and compositions for diagnosing and treating certain HIV infected patients” (The Trustees of the University of Pennsylvania, priority 1994, dated 1996).

Columns and labels:
Design in all cases: species or system human
[1] = system: maternal HIV+ sera (antibodies); assay: RIA / ELISA binding of maternal HIV+ sera to gp120 and gp41 peptides (Example 3); settings: for Percent of the maternal serum samples that bound to the peptide: all 20 samples; for Correlation of peptide recognition with lack of vertical transmission: in words
In short: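 Peptides were coated at 10 μg/ml in carbonate buffer pH 9.6 and blocked with 1% BSA. Sera at 1:50 and 1:500 were incubated overnight at 4°C and detected with ¹²⁵I anti-human IgG (RIA) or HRP/TMB at OD450 (ELISA). Specific binding was taken as peptide minus no-peptide wells, scored as a ratio to normal human serum.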

[2] = system: maternal serum samples (antibodies); assay: ELISA peptide-binding of maternal sera, expanded peptide collection (Example 5); settings: for Binding / reactivity of maternal sera to peptide (in words): Example 5
Text: The gp120 and gp41 peptides used in this experiment include peptides 60 [SEQ ID NO:9], 93 [SEQ ID NO:10], 94 [SEQ ID NO:1], 95 [SEQ ID NO:11], 96 [SEQ ID NO:12], 97 [SEQ ID NO:13], 59 [SEQ ID NO:14], 106 [SEQ ID NO:15], 107 [SEQ ID NO:[…]], 1029/33 [SEQ ID NO:2], p18p [SEQ ID NO:17], B138 [SEQ ID NO:3], 466 [SEQ ID NO:4], 497 [SEQ ID NO:18], 117 [SEQ ID NO:19], F560 [SEQ ID NO:20], 35 [SEQ ID NO:5], 120 [SEQ ID NO:21], 121 [SEQ ID NO:22], 123 [SEQ ID NO:23], 36 [SEQ ID NO:24], 40 [SEQ ID NO:25], 41 [SEQ ID NO:26], 649 [SEQ ID NO:6], 53 [SEQ ID NO:7], 55 [SEQ ID NO:27], 128 [SEQ ID NO:28], 129 [SEQ ID NO:29], 132 [SEQ ID NO:30], 57 [SEQ ID NO:8], and 1103/55 [SEQ ID NO:31] from Table 2. These peptides were synthesized based on the same HIV IIIB isolate as were the peptides of Table 2. Alternative designations for these peptides are provided in brackets.
Each of the peptides was at least 85% pure, making them suitable for ELISA analyses. The average length of these peptides was 18 amino acid residues, which allows for a certain degree of local flexibility and conformational folding, thus facilitating detection of antibody species with reactivities to shaped structures.
The maternal serum samples were obtained from the Mothers/Infants Cohort Study described in Example 1. For the ELISA peptide-binding analyses performed essentially as described in Example 3, maternal serum samples were diluted to 1:50 or 1:500 with blocking buffer (1% bovine serum albumin in phosphate-buffered saline containing 0.05% Tween 20). Binding was measured using 10 μg/mL peptide per well and was considered positive if the experimental/control OD450nm ratio was ≥2. Normal (HIV seronegative) human sera were used as controls.

[3] = system: maternal sera (antibodies); assay: ELISA peptide-binding of maternal sera (Example 6); settings: for Number of Non-Transmitters which bound to peptide / Percent of Non-Transmitters which bound to peptide: N = 12; for Number of Transmitters which bound to peptide / Percent of Transmitters which bound to peptide: N = 4
In short: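 Third-trimester maternal sera, from HIV-1 transmitting and non-transmitting mothers, were tested by ELISA against ~16-residue peptides spanning HIV-1 external and transmembrane glycoproteins. Each serum was run with at least 40 peptides, and values are the percentage of sera binding each peptide.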

[4] = Serum No. 1, Non-Transmission Group
[5] = Serum No. 2, Non-Transmission Group
[6] = Serum No. 3, Non-Transmission Group
[7] = Serum No. 4, Transmission Group
[8] = Serum No. 5, Transmission Group
[9] = Serum No. 6, Non-Transmission Group
[10] = Serum No. 7, Non-Transmission Group
[11] = Serum No. 8, Non-Transmission Group
[12] = Serum No. 9, Non-Transmission Group
[13] = Serum No. 10, Transmission Group
[14] = Serum No. 11, Non-Transmission Group
[15] = Serum No. 12, Non-Transmission Group
[16] = Serum No. 13, Transmission Group
[17] = Serum No. 14, Transmission Group
[18] = Serum No. 15, Transmission Group
[19] = Serum No. 16, Non-Transmission Group
[20] = Serum No. 17, Non-Transmission Group
[21] = Serum No. 18, Non-Transmission Group
[22] = Serum No. 19, Transmission Group
[23] = Serum No. 20, Non-Transmission Group

Substance	Binding of maternal HIV+ serum to peptide (sera/NHS ratio) [1, 4]	Binding of maternal HIV+ serum to peptide (sera/NHS ratio) [1, 5]	Binding of maternal HIV+ serum to peptide (sera/NHS ratio) [1, 6]	Binding of maternal HIV+ serum to peptide (sera/NHS ratio) [1, 7]	Binding of maternal HIV+ serum to peptide (sera/NHS ratio) [1, 8]	Binding of maternal HIV+ serum to peptide (sera/NHS ratio) [1, 9]	Binding of maternal HIV+ serum to peptide (sera/NHS ratio) [1, 10]	Binding of maternal HIV+ serum to peptide (sera/NHS ratio) [1, 11]	Binding of maternal HIV+ serum to peptide (sera/NHS ratio) [1, 12]	Binding of maternal HIV+ serum to peptide (sera/NHS ratio) [1, 13]	Binding of maternal HIV+ serum to peptide (sera/NHS ratio) [1, 14]	Binding of maternal HIV+ serum to peptide (sera/NHS ratio) [1, 15]	Binding of maternal HIV+ serum to peptide (sera/NHS ratio) [1, 16]	Binding of maternal HIV+ serum to peptide (sera/NHS ratio) [1, 17]	Binding of maternal HIV+ serum to peptide (sera/NHS ratio) [1, 18]	Binding / reactivity of maternal sera to peptide (in words) [2]	Number of Non-Transmitters which bound to peptide [3]	Percent of Non-Transmitters which bound to peptide [3]	Number of Transmitters which bound to peptide [3]	Percent of Transmitters which bound to peptide [3]	also measured
CQNQQEKNEQELLEL [Peptide 649]	++ (which value is greater than 3)	+ (which value is between 2 to 3)	+ (which value is between 2 to 3)	+ (which value is between 2 to 3)	- (specific OD450 or cpm of sera sample binding to peptide divided by the specific OD450 or cpm of NHS sample binding to peptide, which value is less than 2)	++ (which value is greater than 3)	++ (which value is greater than 3)	++ (which value is greater than 3)	- (specific OD450 or cpm of sera sample binding to peptide divided by the specific OD450 or cpm of NHS sample binding to peptide, which value is less than 2)	- (specific OD450 or cpm of sera sample binding to peptide divided by the specific OD450 or cpm of NHS sample binding to peptide, which value is less than 2)	++ (which value is greater than 3)	++ (which value is greater than 3)	- (specific OD450 or cpm of sera sample binding to peptide divided by the specific OD450 or cpm of NHS sample binding to peptide, which value is less than 2)	+ (which value is between 2 to 3)	+ (which value is between 2 to 3)	recognized by the transmission group	7	43.8%	2	50%	Difference in binding of samples from transmission vs non-transmission group (Spearman rank-order correlation) ([1]; Example 3): significant statistical difference; Binding of maternal HIV+ serum to peptide (sera/NHS ratio) [1, 19]: - (specific OD450 or cpm of sera sample binding to peptide divided by the specific OD450 or cpm of NHS sample binding to peptide, which value is less than 2); Binding of maternal HIV+ serum to peptide (sera/NHS ratio) [1, 20]: + (which value is between 2 to 3); Binding of maternal HIV+ serum to peptide (sera/NHS ratio) [1, 21]: + (which value is between 2 to 3); Binding of maternal HIV+ serum to peptide (sera/NHS ratio) [1, 22]: - (specific OD450 or cpm of sera sample binding to peptide divided by the specific OD450 or cpm of NHS sample binding to peptide, which value is less than 2); Binding of maternal HIV+ serum to peptide (sera/NHS ratio) [1, 23]: - (specific OD450 or cpm of sera sample binding to peptide divided by the specific OD450 or cpm of NHS sample binding to peptide, which value is less than 2); Percent of the maternal serum samples that bound to the peptide [1]: 70%; Correlation of peptide recognition with lack of vertical transmission [1]: correlated with non-transmission status; Correlation of peptide recognition with lack of vertical transmission ([1]; listed as SEQ ID NO: 6): clearly correlated to non-transmission status
NATAIAVAEGTDRVIEVVQGAYRAI [1103/55]	- (specific OD450 or cpm of sera sample binding to peptide divided by the specific OD450 or cpm of NHS sample binding to peptide, which value is less than 2)	++ (which value is greater than 3)	- (specific OD450 or cpm of sera sample binding to peptide divided by the specific OD450 or cpm of NHS sample binding to peptide, which value is less than 2)	++ (which value is greater than 3)	- (specific OD450 or cpm of sera sample binding to peptide divided by the specific OD450 or cpm of NHS sample binding to peptide, which value is less than 2)	++ (which value is greater than 3)	++ (which value is greater than 3)	++ (which value is greater than 3)	- (specific OD450 or cpm of sera sample binding to peptide divided by the specific OD450 or cpm of NHS sample binding to peptide, which value is less than 2)	- (specific OD450 or cpm of sera sample binding to peptide divided by the specific OD450 or cpm of NHS sample binding to peptide, which value is less than 2)	- (specific OD450 or cpm of sera sample binding to peptide divided by the specific OD450 or cpm of NHS sample binding to peptide, which value is less than 2)	++ (which value is greater than 3)	- (specific OD450 or cpm of sera sample binding to peptide divided by the specific OD450 or cpm of NHS sample binding to peptide, which value is less than 2)	++ (which value is greater than 3)	- (specific OD450 or cpm of sera sample binding to peptide divided by the specific OD450 or cpm of NHS sample binding to peptide, which value is less than 2)	recognized by the transmission group	0	0%	0	0%	Binding of maternal HIV+ serum to peptide (sera/NHS ratio) [1, 19]: - (specific OD450 or cpm of sera sample binding to peptide divided by the specific OD450 or cpm of NHS sample binding to peptide, which value is less than 2); Binding of maternal HIV+ serum to peptide (sera/NHS ratio) [1, 20]: ++ (which value is greater than 3); Binding of maternal HIV+ serum to peptide (sera/NHS ratio) [1, 21]: ++ (which value is greater than 3); Binding of maternal HIV+ serum to peptide (sera/NHS ratio) [1, 22]: - (specific OD450 or cpm of sera sample binding to peptide divided by the specific OD450 or cpm of NHS sample binding to peptide, which value is less than 2); Binding of maternal HIV+ serum to peptide (sera/NHS ratio) [1, 23]: - (specific OD450 or cpm of sera sample binding to peptide divided by the specific OD450 or cpm of NHS sample binding to peptide, which value is less than 2); Percent of the maternal serum samples that bound to the peptide [1]: 45%
58: gp41 peptide, amino acids 794-817, HIV strain IIIB, SEQ ID NO: 173 (KYWWNLLQYWSQELKNSAVSLLNA) [Peptide 58]																recognized by the transmission group	3	25%	0	0%	
56: gp41 peptide, amino acids 747-767, HIV strain IIIB, SEQ ID NO: 156 (RLVNGSLALIWDDLRSLCLFS) [Peptide 56]																recognized by the transmission group	0	0%	0	0%	Percent of both groups that bound to the peptide ([2]; transmission and non-transmission groups): more than 50%
